Reference: US10760052B2, “Method of inhibiting tau phosphorylation” (priority 2012, dated 2020)
Where “and” joins values, the source holds several entries; their conditions need not be identical. Equal entries are not always repeated. Where two headings read alike, the source gives them in different places.

What was measured:
α7nAChR-FLNA complex [1] = molecular target: T1, α7nAChR-FLNA complex (Rattus norvegicus, UniProt A0A8I5ZV49); test: Aβ42-induced α7nAChR-FLNA association in rat frontal cortical synaptosomes (co-immunoprecipitation/Western blot); assay type: cell-based; conditions: 1 or 10 nM compound, simultaneously or 10 minutes prior to Aβ42 (0.1 μM)
T1 construct: from tissue; host or cells: rat frontal cortex synaptosomes
Excerpt: The α7nAChR-FLNA complexes in the solubilized synaptosomes were immunoprecipitated with immobilized anti-FLNA and the α7nAChR and FLNA levels in the anti-FLNA immunoprecipitates determined by Western blotting (FIG. 2A) and quantified by densitometry (FIG. 2B). n=3. […] The letter designation “M” that accompanies many of the “C-series” compounds is omitted from FIG. 2, the remaining figures and most discussions of the figures and compounds hereinafter for ease in expression. Structural formulas of the compounds used in this and the other figures are provided hereinafter. […]

[2] = molecular target: VAKGL pentapeptide of filamin A (FLNA) of SEQ ID NO: 1 (Homo sapiens, UniProt P21333); test: FITC-NLX-based FLNA screening assay (inhibition of FITC-naloxone binding to Bn-VAKGL on streptavidin plates)
α7nAChR-FLNA complex [3] = molecular target: T2, α7nAChR-FLNA complex (Homo sapiens, UniProt P36544); assay type: cell-based
T2 construct: In postmortem control frontocortical tissue, Aβ42-induced FLNA recruitment to α7nAChRs was mimicked; from tissue; host or cells: postmortem frontal cortex of control subjects
Method: Incubation continued for 1 hour in the dark. […] The reaction was terminated by the addition of 1.5 ml of ice-cold Ca^2+-free K-R, and slices were collected by a brief centrifugation.
Solubilized immunoprecipitates derived from co-immunoprecipitation assays were separated by either 7.5 or 10% SDS-PAGE and then electrophoretically transferred to nitrocellulose membranes. The membranes were washed with PBS and blocked overnight (about 18 hours) at 4° C. with 10% milk in PBS with 0.1% Tween®-20 (PBST). Following three 5-minute washes with 0.1% PBST, the membranes were incubated at room temperature for 2 hours with antibody of choice at 1:500-1:1,000 dilutions. After three 2-minute washes in 0.1% PBST, membranes were incubated for 1 hour with anti-species IgG-HRP (1:5,000 dilution) and washed with 0.1% PBST three times, 2-minutes each. Immunoreactivity was visualized by reacting with chemiluminescent reagent (Pierce-ENDOGEN) for exactly 5 minutes and immediately exposing to X-ray film. Specific bands were quantified by densitometric scanning (GS-800 calibrated densitometer, Bio-Rad Laboratories).

mu opiate receptor (MOR) = molecular target: T3, mu opiate receptor (MOR) (Rattus norvegicus, UniProt P33535); assay type: biochemical; conditions: for Concentration of FLNA-Binding Compound as Agonist 0.1 μM / Concentration of FLNA-Binding Compound as Agonist 1 μM / Concentration of FLNA-Binding Compound as Agonist 1 μM + BFNA: [35S]GTPγS binding to Gαo in striatal membranes; for Concentration of FLNA-Binding Compound as Agonist 0.1 μM: compound 0.1 μM; for Concentration of FLNA-Binding Compound as Agonist 1 μM: compound 1 μM; for Concentration of FLNA-Binding Compound as Agonist 1 μM + BFNA: compound 1 μM plus 1 μM β-funaltrexamine (MOR antagonist); for MOR agonist activity ([35S]GTPγS binding), compound as agonist: average of two runs
T3 construct: from tissue; host or cells: striatum (membrane preparation)

[4] = system: tau protein phosphorylated at S202, T231 and T181; test: Aβ42-induced tau phosphorylation in rat frontal cortical synaptosomes; assay type: cell-based; conditions: 1 or 10 nM compound, simultaneously or 10-minute pretreatment; Aβ42 0.1 μM
Method: FIG. 4 in four panels as FIGS. 4A-4D, illustrates that FLNA-binding compounds reduce tau phosphorylation at all three phosphorylation sites. […] The three phosphoepitopes of tau were detected in immunoprecipitates using specific antibodies. […] Immunoprecipitates were determined by Western blotting (FIGS. 4A-4C) and quantified by densitometry (FIG. 4D).
(§1) FIG. 42, also in two panels, FIGS. 42A and 42B, illustrates that FLNA-binding compounds reduce tau phosphorylation at all three phosphorylation sites using the compounds and concentrations of FIG. 41 using immunoprecipitation and Western blotting. […] The three phosphoepitopes of tau were detected in immunoprecipitates using specific antibodies.
as §1, with “44,” for “42,”, “FIG. 44A” for “FIGS. 42A”, “FIG. 44B,” for “42B,”, “43” for “41”, “antibodies. Aβ42 strongly promotes tau phosphorylation at all three sites.” for “antibodies.”
as §1, with “46,” for “42,”, “FIG. 46A” for “FIGS. 42A”, “FIG. 46B,” for “42B,”, “45” for “41”, “antibodies. Aβ42 strongly promotes tau phosphorylation at all three sites.” for “antibodies.”
The three primary phosphorylation sites on tau protein were examined for their phosphorylation levels compared to total tau protein content. Tau, phosphorylated at these three sites, is a constituent of NFTs. Consistent with effects on FLNA-α7nAChR association, and ERK2 activation, all of the FLNA-binding compounds assayed, with 10 minute pre-incubation, decreased Aβ42-induced phosphorylation of tau at all three sites (FIG. 4).

[5] = 0.01 μM FLNA-binding compound, 10 nM FITC-NLX
[6] = 0.1 μM FLNA-binding compound, 10 nM FITC-NLX
[7] = 1 μM FLNA-binding compound, 10 nM FITC-NLX

T1 sequence (A0A8I5ZV49 entry or part of it, one chain of several): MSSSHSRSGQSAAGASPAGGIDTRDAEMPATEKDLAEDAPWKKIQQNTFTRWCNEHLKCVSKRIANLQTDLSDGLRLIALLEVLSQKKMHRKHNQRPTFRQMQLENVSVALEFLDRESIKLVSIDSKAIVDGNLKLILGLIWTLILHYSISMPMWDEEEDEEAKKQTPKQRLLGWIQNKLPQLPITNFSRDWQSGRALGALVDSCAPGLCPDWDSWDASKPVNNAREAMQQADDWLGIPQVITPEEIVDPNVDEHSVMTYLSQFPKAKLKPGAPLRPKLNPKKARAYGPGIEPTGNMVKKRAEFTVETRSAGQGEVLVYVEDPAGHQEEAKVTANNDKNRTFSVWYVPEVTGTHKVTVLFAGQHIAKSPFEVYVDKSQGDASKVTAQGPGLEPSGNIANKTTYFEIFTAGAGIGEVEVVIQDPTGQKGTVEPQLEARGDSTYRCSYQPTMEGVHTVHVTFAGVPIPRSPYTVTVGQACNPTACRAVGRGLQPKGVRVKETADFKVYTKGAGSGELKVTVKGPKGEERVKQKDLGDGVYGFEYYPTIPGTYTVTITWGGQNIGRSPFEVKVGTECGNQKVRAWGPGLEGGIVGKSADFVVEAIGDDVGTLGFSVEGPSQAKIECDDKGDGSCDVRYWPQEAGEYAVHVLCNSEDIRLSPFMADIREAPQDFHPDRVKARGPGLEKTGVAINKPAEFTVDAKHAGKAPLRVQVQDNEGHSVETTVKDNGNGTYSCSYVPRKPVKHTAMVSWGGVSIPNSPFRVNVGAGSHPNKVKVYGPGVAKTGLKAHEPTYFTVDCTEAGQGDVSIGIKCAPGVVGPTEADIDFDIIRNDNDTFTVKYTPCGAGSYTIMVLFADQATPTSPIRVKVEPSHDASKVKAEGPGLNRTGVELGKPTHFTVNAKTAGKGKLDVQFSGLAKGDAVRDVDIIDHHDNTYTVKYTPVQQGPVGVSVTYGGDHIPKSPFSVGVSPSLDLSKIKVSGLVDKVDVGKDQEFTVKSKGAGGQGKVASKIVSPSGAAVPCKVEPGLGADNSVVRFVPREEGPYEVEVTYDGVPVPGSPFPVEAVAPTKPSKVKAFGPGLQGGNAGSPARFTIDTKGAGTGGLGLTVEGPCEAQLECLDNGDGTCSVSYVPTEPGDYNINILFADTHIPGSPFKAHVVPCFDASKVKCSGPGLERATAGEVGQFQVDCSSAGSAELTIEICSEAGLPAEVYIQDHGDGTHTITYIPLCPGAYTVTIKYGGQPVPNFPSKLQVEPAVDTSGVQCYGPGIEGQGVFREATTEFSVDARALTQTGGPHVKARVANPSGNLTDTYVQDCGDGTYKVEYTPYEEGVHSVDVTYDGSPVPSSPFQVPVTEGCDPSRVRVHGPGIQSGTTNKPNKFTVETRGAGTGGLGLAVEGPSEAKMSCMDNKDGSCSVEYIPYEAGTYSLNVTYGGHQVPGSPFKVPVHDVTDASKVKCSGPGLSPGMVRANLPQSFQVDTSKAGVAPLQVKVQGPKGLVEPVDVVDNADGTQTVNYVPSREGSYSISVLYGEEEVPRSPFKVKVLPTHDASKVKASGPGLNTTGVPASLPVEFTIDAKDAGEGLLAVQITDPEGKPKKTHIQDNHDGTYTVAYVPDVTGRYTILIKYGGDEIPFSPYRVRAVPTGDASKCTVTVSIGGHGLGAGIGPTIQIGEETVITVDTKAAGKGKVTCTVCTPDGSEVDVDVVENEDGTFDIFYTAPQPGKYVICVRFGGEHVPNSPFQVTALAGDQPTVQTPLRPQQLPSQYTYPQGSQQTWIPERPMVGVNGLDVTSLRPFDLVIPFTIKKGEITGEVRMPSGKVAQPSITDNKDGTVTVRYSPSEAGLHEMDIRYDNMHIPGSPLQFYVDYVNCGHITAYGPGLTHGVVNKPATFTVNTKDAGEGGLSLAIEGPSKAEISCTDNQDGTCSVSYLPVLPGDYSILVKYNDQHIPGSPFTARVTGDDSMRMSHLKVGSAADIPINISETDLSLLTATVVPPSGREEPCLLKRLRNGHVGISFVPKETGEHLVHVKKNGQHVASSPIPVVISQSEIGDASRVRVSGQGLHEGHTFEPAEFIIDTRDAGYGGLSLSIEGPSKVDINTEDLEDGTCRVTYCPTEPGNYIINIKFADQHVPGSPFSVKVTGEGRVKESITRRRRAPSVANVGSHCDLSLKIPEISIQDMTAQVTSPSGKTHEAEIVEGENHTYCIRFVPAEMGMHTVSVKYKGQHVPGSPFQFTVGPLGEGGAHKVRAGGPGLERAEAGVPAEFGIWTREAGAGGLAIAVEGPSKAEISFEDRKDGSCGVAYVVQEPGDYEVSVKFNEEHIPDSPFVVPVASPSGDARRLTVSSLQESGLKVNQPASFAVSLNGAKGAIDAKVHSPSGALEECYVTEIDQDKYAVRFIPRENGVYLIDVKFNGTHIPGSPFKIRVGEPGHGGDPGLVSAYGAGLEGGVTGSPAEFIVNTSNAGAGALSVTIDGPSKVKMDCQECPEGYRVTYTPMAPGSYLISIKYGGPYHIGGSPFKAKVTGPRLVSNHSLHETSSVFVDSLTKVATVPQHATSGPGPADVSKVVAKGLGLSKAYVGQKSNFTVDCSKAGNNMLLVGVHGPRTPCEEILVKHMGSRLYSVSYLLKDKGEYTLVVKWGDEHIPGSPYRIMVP
T3 sequence (P33535 whole entry): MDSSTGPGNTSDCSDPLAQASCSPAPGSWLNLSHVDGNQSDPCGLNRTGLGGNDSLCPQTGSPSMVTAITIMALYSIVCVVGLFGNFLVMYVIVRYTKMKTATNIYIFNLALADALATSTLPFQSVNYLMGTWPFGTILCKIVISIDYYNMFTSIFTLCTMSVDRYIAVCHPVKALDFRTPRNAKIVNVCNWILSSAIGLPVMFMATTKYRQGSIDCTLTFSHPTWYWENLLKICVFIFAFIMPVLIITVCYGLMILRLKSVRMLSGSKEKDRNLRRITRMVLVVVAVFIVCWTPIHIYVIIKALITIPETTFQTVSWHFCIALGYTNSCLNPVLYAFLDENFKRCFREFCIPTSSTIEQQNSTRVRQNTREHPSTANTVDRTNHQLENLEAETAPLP
T2 sequence (P36544 23-502, one chain of several): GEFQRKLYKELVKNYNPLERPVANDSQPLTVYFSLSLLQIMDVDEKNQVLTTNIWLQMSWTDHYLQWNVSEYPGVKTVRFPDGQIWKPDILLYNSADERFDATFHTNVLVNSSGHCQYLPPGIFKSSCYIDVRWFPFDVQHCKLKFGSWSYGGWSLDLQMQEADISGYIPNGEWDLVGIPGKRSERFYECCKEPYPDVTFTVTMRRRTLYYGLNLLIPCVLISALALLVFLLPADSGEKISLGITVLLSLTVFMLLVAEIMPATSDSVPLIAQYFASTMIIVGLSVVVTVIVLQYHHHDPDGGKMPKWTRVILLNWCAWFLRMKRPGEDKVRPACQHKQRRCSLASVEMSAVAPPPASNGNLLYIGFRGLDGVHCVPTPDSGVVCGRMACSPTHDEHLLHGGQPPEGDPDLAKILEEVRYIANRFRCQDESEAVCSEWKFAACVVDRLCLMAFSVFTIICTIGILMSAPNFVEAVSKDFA

**Q.** `O=C1CNC2(CCN(C(=S)Nc3cccnc3)CC2)N1Cc1ccccc1` [Compound B] was tested. Which “α7nAChR-FLNA association (ratio α7nAChR/FLNA)” value (α7nAChR-FLNA complex [1]) did it give?
**A.** statistically different from Aβ42 alone

**Q.** Which “Percent Binding Inhibition (FITC-NLX binding)” value (from here on “Percent Binding Inhibition”) [2] does the source give for `C=CCN1CC[C@]23c4c5ccc(O)c4O[C@H]2C(=O)CC[C@@]3(O)[C@H]1C5` [Naloxone, naloxone] here?
**A.** 39.87% and 46.29% and 50.91%

**Q.** With `CC(=O)c1ccc(S(=O)(=O)N2CC(CN(C)C)OC23CCN(C)CC3)cc1` (stereo not drawn) [Compound C0108] as the molecule, how does the “α7nAChR-FLNA association (ratio α7nAChR/FLNA)” value (α7nAChR-FLNA complex [1]) read?
**A.** reduce α7nAChR-FLNA association

**Q.** How did the “Aβ42 effect, %” value (α7nAChR-FLNA complex [3]) turn out when `CCN1C[C@]2(COC(=O)c3ccccc3N3C(=O)C[C@H](C)C3=O)CC[C@H](OC)[C@@]34[C@@H]5C[C@H]6[C@H](OC)[C@@H]5[C@](O)(C[C@@H]6OC)[C@@](O)([C@@H](OC)[C@H]23)[C@@H]14` [Methyllycaconitine, methyllycaconitine] was run?
**A.** 2.0 ± 1.2%

**Q.** What about the “FLNA recruitment to α7nAChRs (in words)” value (α7nAChR-FLNA complex [3]) of the same molecule?
**A.** showed no effect

**Q.** And the FLNA/α7nAChR ratio (α7nAChR-FLNA complex [3])?
**A.** 0.08 ± 0.02

**Q.** What about the “FLNA/α7nAChR ratio (stimulation vs vehicle, %)” value (α7nAChR-FLNA complex [3]) of the same molecule?
**A.** (19.8 ± 12.2) %

**Q.** With `CC1CCC(C(C)C)C(OCC(O)CN2CCc3ccccc32)C1` (stereo not drawn) [Compound A0065] as the molecule, how does the “% DAMGO (0.1 μM)” value (mu opiate receptor (MOR)) read?
**A.** 126.6%

**Q.** And the “% DAMGO (1 μM)” value (mu opiate receptor (MOR))?
**A.** 115.7%

**Q.** What about the “% DAMGO + BFNA” value (mu opiate receptor (MOR)) of the same molecule?
**A.** 112.5%

**Q.** And the “Concentration of FLNA-Binding Compound as Agonist 0.1 μM” value (mu opiate receptor (MOR))?
**A.** 197.6%

**Q.** And the “Concentration of FLNA-Binding Compound as Agonist 1 μM” value (mu opiate receptor (MOR))?
**A.** 266.8%

**Q.** What about the “Concentration of FLNA-Binding Compound as Agonist 1 μM + BFNA” value (mu opiate receptor (MOR)) of the same molecule?
**A.** 44.9%

**Q.** And the “Percent Binding Inhibition” value [2, 5]?
**A.** 38.7%

**Q.** What about the “Percent Binding Inhibition” value [2, 6] of the same molecule?
**A.** 50.0%

**Q.** And the “Percent Binding Inhibition” value [2, 7]?
**A.** 50.8%

**Q.** Which “α7nAChR-FLNA association (ratio α7nAChR/FLNA)” value (α7nAChR-FLNA complex [1]) does the source give for `CC(=O)c1ccc(S(=O)(=O)N2CCC3(CC2)NC(=O)CO3)cc1` [Compound C0087] here?
**A.** reduce α7nAChR-FLNA association

**Q.** Which results are given for `COc1c2c(cc3c1C(CC(=O)c1ccc(F)c(F)c1)[N+](C)(C)CC3)OCO2` (stereo not drawn) [Compound B0003]?
**A.** % DAMGO (0.1 μM) (mu opiate receptor (MOR)): 59.9%; % DAMGO (1 μM) (mu opiate receptor (MOR)): 47.4%; % DAMGO + BFNA (mu opiate receptor (MOR)): 29.0%; Concentration of FLNA-Binding Compound as Agonist 0.1 μM (mu opiate receptor (MOR)): 103.0%; Concentration of FLNA-Binding Compound as Agonist 1 μM (mu opiate receptor (MOR)): 131.1%; Concentration of FLNA-Binding Compound as Agonist 1 μM + BFNA (mu opiate receptor (MOR)): 18.6%; Percent Binding Inhibition (FITC-NLX binding) [2, 5]: 45.4%; Percent Binding Inhibition (FITC-NLX binding) [2, 6]: 52.9%; Percent Binding Inhibition (FITC-NLX binding) [2, 7]: 63.5%

**Q.** For `Cc1ccc(S(=O)(=O)N2CCOC23CCN(CC2CCC2)CC3)cc1` [Compound 9], which “MOR agonist activity ([35S]GTPγS binding), compound as agonist” value (“MOR agonist activity … as agonist” for short) (mu opiate receptor (MOR); 0.1 μM, preliminary study) is on record?
**A.** 156.6%

**Q.** What about the “MOR agonist activity … as agonist” value (mu opiate receptor (MOR); 1 μM + βNFA, preliminary study) of the same molecule?
**A.** 56.6%

**Q.** And the “MOR agonist activity … as agonist” value (mu opiate receptor (MOR); 1 μM, preliminary study)?
**A.** 197.2%

**Q.** What about the “MOR agonist activity (in words)” value (mu opiate receptor (MOR); preliminary study) of the same molecule?
**A.** MOR agonists

**Q.** And the “Binding to FLNA (in words)” value ([2]; preliminary study)?
**A.** bind well to FLNA

**Q.** How did the “Aβ42-induced tau phosphorylation at S202, T231 and T181” value [4] turn out when `O=C1CNC2(CCN(C(=S)Nc3ccccc3)CC2)N1Cc1ccccc1` [Compound A] was run?
**A.** reduced tau phosphorylation with simultaneous administration at 1 nM

**Q.** And the “α7nAChR-FLNA association (ratio α7nAChR/FLNA)” value (α7nAChR-FLNA complex [1])?
**A.** statistically different from Aβ42 alone

**Q.** `CN1CCCC1c1cccnc1` (stereo not drawn) [Nicotine, nicotine] was tested. Which “Aβ42 effect, %” value (α7nAChR-FLNA complex [3]) did it give?
**A.** 11.0 ± 3.2%

**Q.** And the FLNA/α7nAChR ratio (α7nAChR-FLNA complex [3])?
**A.** 0.13 ± 0.02

**Q.** And the “FLNA/α7nAChR ratio (stimulation vs vehicle, %)” value (α7nAChR-FLNA complex [3])?
**A.** (107.7 ± 31.4) %
